Results reported in patent EP0336356A2, “Derivatives of tryptophan as CCK antagonists” (ABBOTT LABORATORIES, priority 1988, dated 1989).
Counter-ions that a name gives are not always drawn.

What was measured:
CCK receptors [1] = target: T1, CCK receptors (Cavia porcellus, UniProt H0VZC5); test: [125I]BH-CCK8 radioligand binding, guinea pig cerebral cortical membranes; settings: 30°C for 150 min, read-out: IC₅₀ (nM) [¹²⁵I]-BH-CCK₈ Cortex
T1 construct: cortex and pancreas were removed and rinsed with ice-cold saline; from tissue; host or cells: guinea pig cerebral cortex membranes
T1 sequence (H0VZC5 1-426): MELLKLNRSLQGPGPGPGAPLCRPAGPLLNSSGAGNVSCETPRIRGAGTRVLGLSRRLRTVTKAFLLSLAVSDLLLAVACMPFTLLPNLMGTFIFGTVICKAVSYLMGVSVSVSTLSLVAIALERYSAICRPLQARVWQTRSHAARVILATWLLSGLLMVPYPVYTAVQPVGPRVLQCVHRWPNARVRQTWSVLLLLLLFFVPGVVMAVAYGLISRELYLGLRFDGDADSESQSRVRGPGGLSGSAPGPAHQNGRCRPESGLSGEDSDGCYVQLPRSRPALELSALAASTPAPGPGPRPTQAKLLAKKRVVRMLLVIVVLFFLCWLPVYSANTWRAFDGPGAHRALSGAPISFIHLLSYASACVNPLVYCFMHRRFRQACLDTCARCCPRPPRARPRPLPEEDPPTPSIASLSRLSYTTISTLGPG

CCK receptors [2] = target: T2, CCK receptors (Cavia porcellus, UniProt Q63931); test: [125I]BH-CCK8 radioligand binding, guinea pig pancreatic membranes; settings: 37°C for 30 min, read-out: IC₅₀ (nM) [¹²⁵I]-BH-CCK₈ Pancreas
T2 construct: cortex and pancreas were removed and rinsed with ice-cold saline; from tissue; host or cells: guinea pig pancreas membranes
T2 sequence (Q63931 1-430): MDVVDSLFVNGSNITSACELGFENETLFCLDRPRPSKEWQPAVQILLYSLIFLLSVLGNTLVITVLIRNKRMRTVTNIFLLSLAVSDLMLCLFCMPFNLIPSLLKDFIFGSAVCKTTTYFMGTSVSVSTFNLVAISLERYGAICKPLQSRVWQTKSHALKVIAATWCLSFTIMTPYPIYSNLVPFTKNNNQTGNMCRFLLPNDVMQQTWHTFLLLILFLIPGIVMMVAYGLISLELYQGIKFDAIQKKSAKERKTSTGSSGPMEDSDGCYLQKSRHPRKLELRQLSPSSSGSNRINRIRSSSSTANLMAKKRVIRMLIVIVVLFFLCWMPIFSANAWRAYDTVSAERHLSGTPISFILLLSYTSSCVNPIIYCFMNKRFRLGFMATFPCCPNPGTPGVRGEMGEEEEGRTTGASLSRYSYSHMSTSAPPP

CCK receptors [3] = target: T2, CCK receptors; test: Inhibition of CCK8-stimulated amylase release from guinea pig pancreatic acini; format: cell-based; settings: reference concentration for CCK₈ 3x10⁻¹⁰M, 37°C, 30 min, read-out: IC₅₀ (nM) Inhibition of Amylase Release
Experimental: This assay was performed using the modified protocol of Lin et al., J. Pharmacol Exp. Ther. 236, 729-734, 1986. Guinea pig acini were prepared by the method of Bruzzone et al. (Biochem. J. 226, 621-624, 1985) as follows. Pancreas was dissected out and connective tissues and blood vessels were removed. […] The composition of the KRH buffer was: HEPES, 12.5 mM: NaCl, 118 mM; […] CaCl₂, 1 mM; KH₂PO₄, 1.2 mM; MgSO₄, 1.2 mM; NaHCO₃, 5 mM; glucose, 10 mM, pH 7.4. The buffer was supplemented with 1% MEM vitamins, 1% MEM amino acids and 0.001% aprotinin. The tube was shaken by hand until the suspension appeared homogeneous, usually 5 to 6 min. 5 mL of the KRH, without collagenase and with 0.1% BSA, were added and the tube was centrifuged at 50 x g for 35 sec. The supernatant was discarded and 6 mL of the KRH were added to the cell pellet. […] This wash procedure was repeated once. The cell pellet from the last centrifugation step was then resuspended in 15 mL of KRH containing 0.1% BSA. The contents were filtered through a dual nylon mesh, size 275 and 75 um. The filtrate, containing the acini, were centrifuged at 50 x g for 3 min. The acini were then resuspended in 5 mL of KRH-BSA buffer for 30 min at 37°C, under 100% O₂, with a change of fresh buffer at 15 min. After the 30 min incubation time, the acini were resuspended in 100 volumes of KRH-BSA buffer, containing 3 uM phosphoramidon and 100 µM bestatin. […] The final assay volume was 500 uL. Tubes were vortexed and placed in a 37°C waterbath, under 100% O₂, for 30 min. Afterward, tubes were centrifuged at 10,000 g for 1 min. Amylase activity in the supernatant and the cell pellet were separately determined after appropriate dilutions in 0.1% Triton X-100, 10 mM NaH₂PO₄, pH 7.4 by Abbott Amylase A-gent test using the Abbott Bichromatic Analyzer 200. […]

IC50 (CCK receptors [1]) | IC50 (CCK receptors [2]) | IC50 (CCK receptors [3]) | SMILES
> 10000 nM | – | – | CCCCCN(CCCCC)C(=O)C(Cc1c[nH]c2ccc(OCc3ccccc3)cc12)NC(=O)c1cnc2ccccc2c1 (racemic) [Example 53, N-(3′-Quinolylcarbonyl)-R,S-5-benzyloxytryptophan-di-n-pentylamide]
> 10000 nM | 62 nM | – | CCCCCN(CCCCC)C(=O)C(Cc1c[nH]c2ccc(F)cc12)NC(=O)c1cnc2ccccc2c1 (racemic) [Example 63, N-(3′-Quinolylcarbonyl)-R,S-5-fluorotryptophan-di-n-pentylamide]
10000 nM | 330 nM | – | CCCCCN(CCCCC)C(=O)C(Cc1c[nH]c2ccc(F)cc12)NC(=O)c1cc2ccccc2[nH]1 (racemic) [Example 64, N-(2′-Indolylcarbonyl)-R,S-5-fluorotryptophandi-n-pentylamide]
– | 51 nM | 670 nM | CCCCCN(CCCCC)C(=O)[C@@H](Cc1c[nH]c2ccccc12)NC(=O)c1cc2ccccc2[nH]1 [Example 3, N-(2′-Indolylcarbonyl)-R-Tryptophan-di-n-pentylamide]
– | 330 nM | – | CCCCCN(CCCCC)C(=O)[C@@H](Cc1c[nH]c2ccccc12)NC(=O)c1ccc(Cl)cc1 [Example 4, N-(p-Chlorobenzoyl)-R-Tryptophan-di-n-pentylamide]
– | – | < 30000 nM | O=C(N[C@H](Cc1c[nH]c2ccccc12)C(=O)NCc1ccccc1)c1cnc2ccccc2c1 [Example 7, N-(3′-Quinolylcarbonyl)-R-Tryptophan-benzylamide]
> 10000 nM | 420 nM | < 10000 nM | O=C(N[C@H](Cc1c[nH]c2ccccc12)C(=O)NCc1ccccc1)c1cc2ccccc2[nH]1 [Example 8, N-(2′-Indolylcarbonyl)-R-Tryptophan-benzylamide]
10000 nM | 680 nM | < 30000 nM | C[C@@H](NC(=O)C(Cc1c[nH]c2ccccc12)NC(=O)c1cc2ccccc2[nH]1)c1ccccc1 (stereo partly drawn) [Example 18, N-(2′-Indolylcarbonyl)-Tryptophan-(1′,R-phenylethyl)amide]
> 10000 nM | 1000 nM | < 10000 nM | C[C@H](NC(=O)C(Cc1c[nH]c2ccccc12)NC(=O)c1cc2ccccc2[nH]1)c1ccccc1 (stereo partly drawn) [Example 19, N-(2′-Indolylcarbonyl)-Tryptophan-(1′,S-phenylethyl)amide]
10000 nM | 150 nM | < 10000 nM | COC(=O)[C@@H](NC(=O)[C@@H](Cc1c[nH]c2ccccc12)NC(=O)c1cc2ccccc2[nH]1)c1ccccc1 [Example 25, Methyl N-(2,indolylcarbonyl)-R-Tryptophyl-S-Phenylglycinate]
10000 nM | 280 nM | < 10000 nM | CCOC(=O)CN(Cc1ccccc1)C(=O)[C@@H](Cc1c[nH]c2ccccc12)NC(=O)c1cc2ccccc2[nH]1 [Example 28, Ethyl N-(2′-Indolylcarbonyl)-R-Tryptophyl-(N-benzyl)Glycinate]
> 10000 nM | 1500 nM | – | CCCCCN(CCCCC)C(=O)[C@@H](Cc1c(Sc2ccccc2[N+](=O)[O-])[nH]c2ccccc12)NC(=O)c1cnc2ccccc2c1 [Example 45, N-(3′-Quinolylcarbonyl)-2-(2′-nitrophenylsulfenyl)-R-Tryptophan-di-n-pentylamide]
– | – | < 10000 nM | O=C(NC(Cc1c[nH]c2ccccc12)C(=O)Nc1cnc2ccccc2c1)c1cnc2ccccc2c1 (stereo not drawn) [Example 46, N-(3′-Quinolylcarbonyl)-Tryptophan-N-(3′-quinolyl)amide]
> 10000 nM | 1200 nM | – | COC(=O)[C@@H](NC(=O)[C@@H](Cc1c[nH]c2ccccc12)NC(=O)c1cnc2ccccc2c1)c1ccc(O)cc1 [Example 50, Methyl N-(3′-Quinolylcarbonyl)-R-Tryptophyl-S-(p-hydroxyphenyl)glycinate]
– | – | < 100000 nM | CCCCCN(CCCCC)C(=O)C(Cc1c[nH]c2ccccc12)NC(=O)C=Cc1cccnc1 (stereo not drawn) [Example 54, N-(3′-(3˝-Pyridyl)prop-2-enoyl)-R-Tryptophan-di-n-pentylamide]
> 10000 nM | 750 nM | – | CCCCCN(CCCCC)C(=O)[C@@H](Cc1c[nH]c2ccccc12)NC(=O)C1=C(C)c2ccccc2C1 [Example 57, N-(2′-(3′-Methylindenyl)carbonyl)-R-Tryptophan-di-n-pentylamide]
4100 nM | 10 nM | – | CCCCCN(CCCCC)C(=O)[C@@H](CC1C(=O)Nc2ccccc21)NC(=O)c1cnc2ccccc2c1 (stereo partly drawn) [Example 69, N-(3′-Quinolylcarbonyl)-R-(β-oxyindolyl)Ala-di-n-pentylamide]
> 10000 nM | 370 nM | – | CCCCCN(CCCCC)C(=O)[C@H]1Cc2c([nH]c3ccccc23)N1C(=O)c1cnc2ccccc2c1 [Example 78, 2,3-Dihydro-1-(3′-quinolylcarbonyl)-pyrrolo[2,3-b]indole-(2R)-dipentylcarboxamide]
< 10000 nM | 2.6 nM | – | CCCCCN(CCCCC)C(=O)[C@@H](Cc1c[nH]c2ccc(O)cc12)NC(=O)c1cnc2ccccc2c1 [Example 84, N^α-(3′-Quinolylcarbonyl)-R-5-hydroxytryptophan-di-n-pentylamide]
> 10000 nM | 230 nM | – | CCCCCN(CCCCC)C(=O)[C@@H](Cc1c[nH]c2ccccc12)NC(=O)c1ccc2cccc(O)c2n1 [Example 90, N′(8′-Hydroxy-2′-quinolylcarbonyl)-R-Tryptophan-di-n-pentylamide]
– | 5 nM | – | CCCCCN(CCCCC)C(=O)[C@@H](Cc1c[nH]c2ccccc12)NC(=O)c1cc(O)c2cccc(O)c2n1 [Example 91, N-(4′,8′-Dihydroxy-2′-quinolylcarbonyl)-R-Tryptophan-di-n-pentylamide]
– | – | 100000 nM | CCCCCN(CCCCC)C(=O)[C@@H](Cc1c[nH]c2ccccc12)NC(=O)c1ccc2cc(O)ccc2c1 [Example 93, N-(6′-Hydroxy-2′-naphthoyl)-R-Tryptophan-di-n-pentylamide]
– | 630 nM | < 100000 nM | CCCCCN(CCCCC)C(=O)[C@@H](Cc1c[nH]c2ccccc12)NC(=O)c1cc2ccccc2cn1 [Example 96, N-(3′-Isoquinolylcarbonyl)-R-Tryptophan-di-n-pentylamide]
– | 180 nM | < 100000 nM | CCCCCN(CCCCC)C(=O)[C@@H](Cc1c[nH]c2ccccc12)NC(=O)c1ccc2ncccc2c1 [Example 97, N-(6′-Quinolylcarbonyl)-R-Tryptophan-di-n-pentylamide]
> 10000 nM | 620 nM | – | CCCCCN(CCCCC)C(=O)[C@@H](Cc1c[nH]c2ccccc12)NC(=O)c1cc2cc(C)ccc2[nH]1 [Example 105, N-(5′-Methyl-2′-indolylcarbonyl)-R-Tryptophan-di-n-pentylamide]
– | 82 nM | – | CCCCCN(CCCCC)C(=O)[C@@H](Cc1c[nH]c2ccccc12)NC(=O)c1cc2cc(F)ccc2[nH]1 [Example 106, N-(5′-Fluoro-2′-indolylcarbonyl)-R-Tryptophan-di-n-pentylamide]
13000 nM | 17 nM | – | CCCCCN(CCCCC)C(=O)[C@@H](Cc1c[nH]c2ccccc12)NC(=O)c1cnc2ccccc2c1 [Example 117, N-(3′-Quinolylcarbonyl)-R-Tryptophan-di-n-pentylamide mesylate salt]
